Reference: PubChem BioAssay (NCI)
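These data come from cells grown in 96-well plates and exposed to compound for 48 hours at five concentrations. At the TGI there is no net growth.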

Columns and labels:
Assay in all cases: NCI tumour cell line growth inhibition, 48 h
[1] = test system: UO-31 renal
[2] = test system: OVCAR-3 ovarian
[3] = test system: MDA-MB-435
[4] = test system: M14 melanoma
[5] = test system: U251 CNS
[6] = test system: SNB-75 CNS
[7] = test system: CCRF-CEM leukemia
[8] = test system: HCC-2998 colon
[9] = test system: HOP-62 NSCLC
[10] = test system: NCI-H460 lung
[11] = test system: OVCAR-4 ovarian
[12] = test system: 786-0 renal
[13] = test system: UACC-62 melanoma
[14] = test system: BT-549 breast
[15] = test system: LOX IMVI melanoma
[16] = test system: MCF7 breast
[17] = test system: SK-MEL-2 melanoma
[18] = test system: SK-MEL-28 melanoma
[19] = test system: ACHN renal
[20] = test system: MOLT-4 leukemia
[21] = test system: NCI/ADR-RES ovarian
[22] = test system: RXF 393 renal
[23] = test system: SF-295 CNS
[24] = test system: MDA-N
[25] = test system: NCI-H23 lung
[26] = test system: COLO 205 colon
[27] = test system: KM12 colon
[28] = test system: OVCAR-5 ovarian
[29] = test system: CAKI-1 renal
[30] = test system: A549 NSCLC
[31] = test system: T-47D breast
[32] = test system: TK-10 renal
[33] = test system: SF-268 CNS
[34] = test system: SW-620 colon
[35] = test system: SN12C renal
[36] = test system: HCT-116 colon
[37] = test system: NCI-H226 lung
[38] = test system: SK-OV-3 ovarian
[39] = test system: HS 578T breast
[40] = test system: K-562 leukemia
[41] = test system: SR leukemia
[42] = test system: A498 renal
[43] = test system: OVCAR-8 ovarian
[44] = test system: HL-60(TB) leukemia
[45] = test system: SK-MEL-5 melanoma
[46] = test system: RPMI-8226 leukemia
[47] = test system: SNB-19 CNS
[48] = test system: HCT-15 colon
[49] = test system: EKVX NSCLC
[50] = test system: HT29 colon
[51] = test system: PC-3 prostate
[52] = test system: UACC-257 melanoma
[53] = test system: DU-145 prostate
[54] = test system: IGROV1 ovarian
[55] = test system: SF-539 CNS
[56] = test system: MDA-MB-231 breast
[57] = test system: MALME-3M melanoma
[58] = test system: NCI-H522 lung

Structure (SMILES): CC(C)(C)[Si](C)(C)OC1(CCc2ccccc2OS(=O)(=O)C(F)(F)F)CCCC=C1COCc1ccccc1 (stereo not given)
- TGI [1]: > 100 µM
- TGI [2]: > 100 µM
- TGI [3]: > 100 µM
- TGI [4]: > 100 µM
- TGI [5]: > 100 µM
- TGI [6]: > 100 µM
- TGI [7]: > 76.4 µM
- TGI [8]: > 100 µM
- TGI [9]: > 100 µM
- TGI [10]: > 100 µM
- TGI [11]: > 100 µM
- TGI [12]: > 100 µM
- TGI [13]: > 53 µM
- TGI [14]: > 100 µM
- TGI [15]: > 100 µM
- TGI [16]: > 54.8 µM
- TGI [17]: > 100 µM
- TGI [18]: > 100 µM
- TGI [19]: > 50.9 µM
- TGI [20]: > 62.3 µM
- TGI [21]: > 100 µM
- TGI [22]: 90.8 µM
- TGI [23]: > 100 µM
- TGI [24]: > 100 µM
- TGI [25]: > 100 µM
- TGI [26]: > 100 µM
- TGI [27]: > 100 µM
- TGI [28]: > 100 µM
- TGI [29]: > 100 µM
- TGI [30]: > 100 µM
- TGI [31]: > 100 µM
- TGI [32]: > 100 µM
- TGI [33]: > 100 µM
- TGI [34]: > 100 µM
- TGI [35]: > 100 µM
- TGI [36]: > 100 µM
- TGI [37]: > 100 µM
- TGI [38]: > 100 µM
- TGI [39]: > 100 µM
- TGI [40]: > 100 µM
- TGI [41]: > 100 µM
- TGI [42]: > 100 µM
- TGI [43]: > 100 µM
- TGI [44]: > 55.3 µM
- TGI [45]: > 100 µM
- TGI [46]: > 52.7 µM
- TGI [47]: > 100 µM
- TGI [48]: > 100 µM
- TGI [49]: > 100 µM
- TGI [50]: > 100 µM
- TGI [51]: > 100 µM
- TGI [52]: > 100 µM
- TGI [53]: > 100 µM
- TGI [54]: > 100 µM
- TGI [55]: > 100 µM
- TGI [56]: > 100 µM

Structure (SMILES): Cc1ccc(O)c(-c2cc(-c3cccc(Br)c3)c(C#N)c(N)n2)c1
- TGI [1]: 72.7 µM
- TGI [2]: > 100 µM
- TGI [3]: 39.8 µM
- TGI [4]: 89.2 µM
- TGI [5]: 35.3 µM
- TGI [8]: 48.6 µM
- TGI [9]: > 100 µM
- TGI [10]: 55.7 µM
- TGI [11]: 22.5 µM
- TGI [12]: > 100 µM
- TGI [13]: 37.4 µM
- TGI [14]: > 100 µM
- TGI [15]: 31.1 µM
- TGI [16]: 92 µM
- TGI [17]: 51.6 µM
- TGI [19]: 49.3 µM
- TGI [20]: 77.1 µM
- TGI [21]: > 100 µM
- TGI [22]: 62.5 µM
- TGI [23]: 54.2 µM
- TGI [24]: 79.6 µM
- TGI [25]: > 100 µM
- TGI [26]: 34.2 µM
- TGI [27]: 58.9 µM
- TGI [28]: > 100 µM
- TGI [29]: 75.6 µM
- TGI [30]: 87.1 µM
- TGI [31]: 76.2 µM
- TGI [32]: 40.2 µM
- TGI [33]: > 100 µM
- TGI [34]: 89.8 µM
- TGI [35]: 49.7 µM
- TGI [36]: 42.4 µM
- TGI [37]: 44.1 µM
- TGI [38]: 87.3 µM
- TGI [39]: 62.8 µM
- TGI [57]: 63.1 µM
- TGI [40]: 57.3 µM
- TGI [41]: 46.8 µM
- TGI [43]: > 100 µM
- TGI [44]: 72 µM
- TGI [45]: 60 µM
- TGI [46]: 28 µM
- TGI [47]: 45.7 µM
- TGI [48]: 30.6 µM
- TGI [49]: 65.5 µM
- TGI [58]: 47.8 µM
- TGI [50]: 54.7 µM
- TGI [51]: 55.6 µM
- TGI [52]: 52 µM
- TGI [53]: > 100 µM
- TGI [54]: 50.9 µM
- TGI [55]: 75.5 µM
- TGI [56]: 52.7 µM

Structure (SMILES): O=C(Nc1ccn(C2CCC(CO)O2)c(=O)n1)c1ccccc1 (stereo not given)
- TGI [1]: > 100 µM
- TGI [3]: > 100 µM
- TGI [4]: > 100 µM
- TGI [5]: > 100 µM
- TGI [6]: > 100 µM
- TGI [7]: > 100 µM
- TGI [8]: > 100 µM
- TGI [9]: > 100 µM
- TGI [12]: > 100 µM
- TGI [13]: > 100 µM
- TGI [14]: > 100 µM
- TGI [15]: > 100 µM
- TGI [16]: > 100 µM
- TGI [17]: > 100 µM
- TGI [18]: > 100 µM
- TGI [19]: > 100 µM
- TGI [20]: > 100 µM
- TGI [21]: > 100 µM
- TGI [22]: > 100 µM
- TGI [23]: > 100 µM
- TGI [24]: > 100 µM
- TGI [25]: > 100 µM
- TGI [26]: > 100 µM
- TGI [27]: > 100 µM
- TGI [28]: > 100 µM
- TGI [29]: > 100 µM
- TGI [30]: > 100 µM
- TGI [31]: > 100 µM
- TGI [32]: > 100 µM
- TGI [33]: > 100 µM
- TGI [34]: > 100 µM
- TGI [35]: > 100 µM
- TGI [36]: > 100 µM
- TGI [37]: > 100 µM
- TGI [38]: > 100 µM
- TGI [39]: > 100 µM
- TGI [57]: > 100 µM
- TGI [40]: > 100 µM
- TGI [41]: > 100 µM
- TGI [42]: > 100 µM
- TGI [43]: > 100 µM
- TGI [44]: > 100 µM
- TGI [45]: > 100 µM
- TGI [46]: > 100 µM
- TGI [47]: > 100 µM
- TGI [48]: > 100 µM
- TGI [49]: > 100 µM
- TGI [58]: > 100 µM
- TGI [50]: > 100 µM
- TGI [51]: > 100 µM
- TGI [52]: > 100 µM
- TGI [53]: > 100 µM
- TGI [54]: > 100 µM
- TGI [55]: > 100 µM
- TGI [56]: > 100 µM
